Reference: US20150218212A1, “FLUORINATED EPOXYKETONE-BASED TETRAPEPTIDE COMPOUNDS AND USES THEREOF AS PROTEASOME INHIBITORS” (FLUORINOV PHARMA INC., priority 2012, published 2015)

What was measured:
Type in all cases: cell-based, human
OVCAR-8 = assay: NCI screening panel, OVCAR-8 (Ovarian Cancer)
Protocol: (§1) Representative compounds of Formula I were screened using the National Cancer Institute (NCI) screening panel, which consists of a panel of human tumor cell lines, representing leukemia, melanoma, and cancers of the lung, colon, ovary, breast, prostate and renal system.
(§2) After 24 h, two plates of each cell line are fixed in situ with TCA, to represent a measurement of the cell population for each cell line at the time of drug addition (Tz). Experimental drugs are solubilised in dimethyl sulfoxide at 400-fold the desired final maximum test concentration and stored frozen prior to use. At the time of drug addition, an aliquot of frozen concentrate is thawed and diluted to twice the desired final maximum test concentration with complete medium containing 50 μg/mL gentamicin. Additional four, 10-fold or ½ log serial dilutions are made to provide a total of five drug concentrations plus control. Aliquots of 100 μl of these different drug dilutions are added to the appropriate microtiter wells already containing 100 μl of medium, resulting in the required final drug concentrations.
(§3) Following drug addition, the plates are incubated for an additional 48 h at 37° C., 5% CO2, 95% air, and 100% relative humidity. For adherent cells, the assay is terminated by the addition of cold TCA (trichloroacetic acid). Cells are fixed in situ by the gentle addition of 50 μl of cold 50% (w/v) TCA (final concentration, 10% TCA) and incubated for 60 minutes at 4° C. The supernatant is discarded, and the plates are washed five times with tap water and air dried. Sulforhodamine B (SRB) solution (100 μl) at 0.4% (w/v) in 1% acetic acid is added to each well, and plates are incubated for 10 minutes at room temperature. After staining, unbound dye is removed by washing five times with 1% acetic acid and the plates are air dried. Bound stain is subsequently solubilised with 10 mM trizma base, and the absorbance is read on an automated plate reader at a wavelength of 515 nm. For suspension cells, the methodology is the same except that the assay is terminated by fixing settled cells at the bottom of the wells by gently adding 50 μl of 80% TCA (final concentration, 16% TCA). Using the seven absorbance measurements [time zero, (Tz), control growth, (C), and test growth in the presence of drug at the five concentration levels (Ti)], the percentage growth is calculated at each of the drug concentrations levels. Percentage growth inhibition is calculated as: [(Ti−Tz)/(C−Tz)]×100 for concentrations for which Ti>/=Tz and [(Ti−Tz)/Tz]×100 for concentrations for which Ti<Tz.
(§4) Three dose response parameters are calculated for each experimental agent. Growth inhibition of 50% (GI50) is calculated from [(Ti−Tz)/(C−Tz)]×100=50, which is the drug concentration resulting in a 50% reduction in the net protein increase (as measured by SRB staining) in control cells during the drug incubation. The drug concentration resulting in total growth inhibition (TGI) is calculated from Ti=Tz. The LC50 (concentration of drug resulting in a 50% reduction in the measured protein at the end of the drug treatment as compared to that at the beginning) indicating a net loss of cells following treatment is calculated from [(Ti−Tz)/Tz]×100=−50. Values are calculated for each of these three parameters if the level of activity is reached. However, if the effect is not reached or is exceeded, the value for that parameter is expressed as greater or less than the maximum or minimum concentration tested.

COLO 205 = assay: NCI screening panel, COLO 205 (Colon Cancer)
Protocol: as §1, §2, §3, §4

SR = assay: NCI screening panel, SR (Leukemia)
Protocol: as §1, §2, §3, §4

UACC-62 = assay: NCI screening panel, UACC-62 (Melanoma)
Protocol: as §1, §2, §3, §4

NCI-H23 = assay: NCI screening panel, NCI-H23 (Non-Small Cell Lung Cancer)
Protocol: as §1, §2, §3, §4

RPMI-8226 = assay: NCI screening panel, RPMI-8226 (Leukemia)
Protocol: as §1, §2, §3, §4

A498 = assay: NCI screening panel, A498 (Renal Cancer)
Protocol: as §1, §2, §3, §4

HL-60(TB) = assay: NCI screening panel, HL-60(TB) (Leukemia)
Protocol: as §1, §2, §3, §4

PC-3 = assay: NCI screening panel, PC-3 (Prostate Cancer)
Protocol: as §1, §2, §3, §4

OVCAR-5 = assay: NCI screening panel, OVCAR-5 (Ovarian Cancer)
Protocol: as §1, §2, §3, §4

BT-549 = assay: NCI screening panel, BT-549 (Breast Cancer)
Protocol: as §1, §2, §3, §4

RXF 393 = assay: NCI screening panel, RXF 393 (Renal Cancer)
Protocol: as §1, §2, §3, §4

NCI-H322M = assay: NCI screening panel, NCI-H322M (Non-Small Cell Lung Cancer)
Protocol: as §1, §2, §3, §4

LOX IMVI = assay: NCI screening panel, LOX IMVI (Melanoma)
Protocol: as §1, §2, §3, §4

SW-620 = assay: NCI screening panel, SW-620 (Colon Cancer)
Protocol: as §1, §2, §3, §4

M14 = assay: NCI screening panel, M14 (Melanoma)
Protocol: as §1, §2, §3, §4

786-0 = assay: NCI screening panel, 786-0 (Renal Cancer)
Protocol: as §1, §2, §3, §4

HT29 = assay: NCI screening panel, HT29 (Colon Cancer)
Protocol: as §1, §2, §3, §4

MCF7 = assay: NCI screening panel, MCF7 (Breast Cancer)
Protocol: as §1, §2, §3, §4

Which results are given for `CC(C)C[C@H](NC(=O)[C@H](COC(F)F)NC(=O)CN1CCOCC1)C(=O)N[C@@H](COC(F)F)C(=O)N[C@@H](Cc1ccccc1)C(=O)[C@@]1(C)CO1` [Example 4, (2S)-N-[(1S)-2-[[(1S)-1-benzyl-2-[(2R)-2-methyloxiran-2-yl]-2-oxo-ethyl]amino]-1-(difluoromethoxymethyl)-2-oxo-ethyl]-2-[[(2S)-3-(difluoromethoxy)-2-[(2-mor-pholinoacetyl)amino]propanoyl]amino]-4 methyl-pentanamide]?
Log10GI50 (OVCAR-8): −6.67; Log10LC50 (OVCAR-8): >−4.00; Log10TGI50 (OVCAR-8): −5.89; Log10GI50 (COLO 205): −7.25; Log10LC50 (COLO 205): −4.46; Log10TGI50 (COLO 205): −6.28; Log10GI50 (SR): −7.66; Log10LC50 (SR): >−4.00; Log10TGI50 (SR): >−4.00; Log10GI50 (UACC-62): −7.39; Log10LC50 (UACC-62): −4.67; Log10TGI50 (UACC-62): −6.59; Log10GI50 (NCI-H23): −7.51; Log10LC50 (NCI-H23): −4.31; Log10TGI50 (NCI-H23): −6.63; Log10GI50 (RPMI-8226): −7.51; Log10LC50 (RPMI-8226): >−4.00; Log10TGI50 (RPMI-8226): −6.54; Log10GI50 (A498): −7.42; Log10LC50 (A498): −5.65; Log10TGI50 (A498): −6.61; Log10GI50 (HL-60(TB)): −7.44; Log10LC50 (HL-60(TB)): >−4.00; Log10TGI50 (HL-60(TB)): −6.44; Log10GI50 (PC-3): −7.18; Log10LC50 (PC-3): −4.68; Log10TGI50 (PC-3): −6.40; Log10GI50 (OVCAR-5): −7.29; Log10LC50 (OVCAR-5): >−4.00; Log10TGI50 (OVCAR-5): −6.07; Log10GI50 (BT-549): −7.64; Log10TGI50 (BT-549): −6.91; Log10GI50 (RXF 393): −6.83; Log10LC50 (RXF 393): −6.05; Log10TGI50 (RXF 393): −6.44; Log10GI50 (NCI-H322M): −6.73; Log10LC50 (NCI-H322M): −4.18; Log10TGI50 (NCI-H322M): −5.81; Log10GI50 (LOX IMVI): −7.77; Log10LC50 (LOX IMVI): −7.06; Log10TGI50 (LOX IMVI): −7.42; Log10GI50 (SW-620): −7.43; Log10LC50 (SW-620): −4.40; Log10TGI50 (SW-620): −5.98; Log10GI50 (M14): −6.97; Log10LC50 (M14): >−4.00; Log10TGI50 (M14): −5.66; Log10GI50 (786-0): −6.44; Log10LC50 (786-0): −4.27; Log10TGI50 (786-0): −5.58; Log10GI50 (HT29): −7.50; Log10LC50 (HT29): >−4.00; Log10TGI50 (HT29): −5.63; Log10GI50 (MCF7): <−8.00; Log10LC50 (MCF7): >−4.00; Log10TGI50 (MCF7): −4.82
